Measured values from PMC12395388 (Regulatory toxicology and pharmacology : RTP, 2024).
Read-outs that look alike come from different tables or passages of the source.

Legend:
[1] = parent drug with nitrite; ref Ozhan and Alpertunga, 2003; cited from earlier work
[2] = ref IARC (https://monographs.iarc.who.int/agents-classified-by-the-iarc/); cited from earlier work
[3] = ref as given in Table 2 Notes (Kerklaan et al., 1981; Zeiger et al., 1972); cited from earlier work
Drosophila = settings: ref Vogel and Nivard, 1993; cited from earlier work
Ames tester strains = settings: published/posted results; ref representative Ames references of Table 2; cited from earlier work
[4] = published by FDA as of September 4, 2024, ref FDA, 2024a; cited from earlier work
[5] = species as in value; ref as given in Table 2 Notes; cited from earlier work
[6] = tested on: CHO, V79, L5178Y/Tk+/−, TK6, HepaRG cells; settings: cited from earlier work
[7] = tested on: Salmonella typhimurium TA1535; assay: Preincubation Ames test, strain TA1535; format: cell-based; settings: for Effectiveness of time of preincubation for most effective S9: 30 vs 60 min; for Ames response when tested as an aqueous suspension: 60 min preincubation, TA1535; for Mutagenic response in TA1535: any activation condition and preincubation time
[8] = tested on: Salmonella typhimurium TA100; assay: Preincubation Ames test, strain TA100; format: cell-based; settings: strain TA100; for Effectiveness of time of preincubation for most effective S9: 30 vs 60 min
[9] = tested on: E. coli WP2 uvrA (pKM101); assay: Preincubation Ames test, strain WP2 uvrA; format: cell-based, Escherichia coli; settings: for Effectiveness of time of preincubation for most effective S9: strain WP2 uvrA (pKM101), 30 vs 60 min; for Mutagenic response in WP2 uvrA (pKM101): any activation condition and preincubation time
[10] = ref Wogan et al., 1975, cited from earlier work
[11] = PC1 most potent, PC5 least potent; ref FDA, 2024a; cited from earlier work
[12] = tested on: Salmonella typhimurium tester strains TA98, TA100, TA1535, and TA1537, and Escherichia coli strain WP2 uvrA (pKM101); assay: Preincubation Ames test, five tester strains; format: cell-based; settings: for Effect of length of preincubation on positive responses: 30 min vs 60 min, over all strains
[13] = tested on: Salmonella typhimurium TA98; assay: Preincubation Ames test, strain TA98; format: cell-based; settings: strain TA98; 30 vs 60 min
[14] = tested on: Salmonella typhimurium TA1537; assay: Preincubation Ames test, strain TA1537; settings: for Effectiveness of time of preincubation for most effective S9: 30 vs 60 min
[15] = in vivo; cited from earlier work
yeast = settings: cited from earlier work
[16] = cell lines as named in the value, ref as given in Table 2 Notes
[17] = listed as N-nitroso-methylphenylamine

CNCCC(Oc1ccc(C(F)(F)F)cc1)c1ccccc1 (stereo not shown) [Fluoxetine]
Genotoxicity under nitrosating conditions [1]: genotoxic under nitrosating conditions

O=NN(c1ccccc1)c1ccccc1 [SM-11, N,N-Diphenylnitrous amide]
IARC classification [2]: Group 3

CCN(CC)N=O [SM-2, N,N-Diethylnitrous amide]
Mutagenicity in host-mediated assay [3]: Mutagenic
Recombination in Drosophila (Drosophila): recombinogen in Drosophila
Ames response (all S9-mediated except where noted) (Ames tester strains): Positive; preincubation more sensitive
AI limit [4]: 26.5 ng/day
Mutagenicity in TGR assay [5]: Mutagenic in rat and mouse TGR, error-corrected sequencing
Mutagenicity/genotoxicity in mammalian cells in vitro [6, 16]: mutagenic/genotoxic in CHO, L5178Y/Tk^+/−, V79, TK6, HepaRG cells

CCCCN(CCCC)N=O [SM-9, N,N-Dibutylnitrous amide]
Effectiveness of time of preincubation for most effective S9 ([7]; strain TA1535): 60min = 30min
Effectiveness of time of preincubation for most effective S9 [8]: 30min ≥60min
Effectiveness of time of preincubation for most effective S9 [9]: 60min ≥30min
IARC classification [2]: Group 2B
Ames response (all S9-mediated except where noted) (Ames tester strains): Positive

Fc1ccc([C@@H]2CCNC[C@H]2COc2ccc3c(c2)OCO3)cc1 [Paroxetine]
Genotoxicity under nitrosating conditions [1]: Paroxetine genotoxic under nitrosating conditions ([Ozhan and Alpertunga, 2003])

Nc1nc2ncc(CN(N=O)c3ccc(C(=O)NC(CCC(=O)O)C(=O)O)cc3)nc2c(=O)[nH]1 (stereo not shown) [NDSRI-28, 2-[[4-[(2-Amino-4-oxo-3 H-pteridin-6-yl)methyl-nitrosoamino)benzoyl]amino]pentanedioic acid]
Ames response when tested as an aqueous suspension [7]: d Weakly positive/equivocal when tested as an aqueous suspension: see text and Supplementary Material.
Ames response when tested as an aqueous suspension ([7]; listed as N-nitroso-folic acid): equivocal or weakly positive
Lung tumors in neonatal mouse cancer bioassay [10]: Weak positive for lung tumors in neonatal mouse assay ([Wogan et al., 1975])
Lung tumors in neonatal mouse cancer bioassay ([10]; listed as N-nitroso-folic acid): induced lung tumors
Ames response (all S9-mediated except where noted) (Ames tester strains): Positive
AI limit [4]: 1500 ng/day
CPCA Potency Category (PC) [11]: PC4

O=NN1CC2CC(C1)c1cc3nccnc3cc12 [NDSRI-15, 8-Nitroso-7,8,9, 10-tetrahydro-6H-6, 10-methanoazepino[4,5-g]quinoxaline]
Effect of length of preincubation on positive responses [12]: benefited from a preincubation of 60 min compared with 30 min
Effectiveness of time of preincubation for most effective S9 ([7]; strain TA1535): 60min ≥30min
Effectiveness of time of preincubation for most effective S9 [8]: 60min = 30min
Effectiveness of hamster vs. rat S9s for each positive strain ([8]; H = hamster liver S9, R = rat liver S9): H only
Effectiveness of time of preincubation for most effective S9 [9]: 60min = 30min
Effectiveness of time of preincubation for most effective S9 [13]: 60min ≥30min
AI limit [4]: 400 ng/day
CPCA Potency Category (PC) [11]: PC3
Effectiveness of time of preincubation for most effective S9 ([14]; strain TA1537): 60min ≥30min

CCOC(CN(CC(OCC)OCC)N=O)OCC [SM-12, N,N-Bis(2,2-diethoxyethyl)nitrous amide]
Specificity for G:C or A:T target tester strains ([12]; G:C target: TA98, TA100, TA1535, TA1537, A:T target: WP2 uvrA (pKM101)): positive only in G:C detecting strains
Mutagenic response in TA1535 [7]: only positive strain
More effective %S9 in S9 mix of more effective S9 (H or R) ([7]; strain TA1535, 10% vs 30% S9 in the S9 mix): 30% only
Effectiveness of time of preincubation for most effective S9 ([7]; strain TA1535): 60min = 30min
Effectiveness of hamster vs. rat S9s for each positive strain ([7]; strain TA1535, H = hamster liver S9, R = rat liver S9): H only
Carcinogenicity in rats [15]: noncarcinogenic in rats

CN(CCCC(=O)O)N=O [SM-7, 4-[Methyl(nitroso)amino] butanoic acid]
AI limit [4]: 1500 ng/day
CPCA Potency Category (PC) [11]: PC4
Mutagenicity/genotoxicity in mammalian cells in vitro [6, 16]: Mutagenic/genotoxic in yeast, TK6, HepaRG cells ([Mehta and Von Borstel, 1984]; [Li et al., 2022]; [Seo et al., 2023])
Mutagenicity/genotoxicity in yeast (yeast; ref Larimer et al., 1980, Mehta and Von Borstel, 1984): Mutagenic/genotoxic in yeast, TK6, HepaRG cells ([Mehta and Von Borstel, 1984]; [Li et al., 2022]; [Seo et al., 2023])

CN(N=O)c1ccccc1 [SM-6, N-Methyl-N-phenylnitrous amide]
Mutagenic response in TA1535 [7, 17]: negative
Mutagenic response in TA1535 ([7]; listed as NMPA): not positive
Mutagenic response in WP2 uvrA (pKM101) [9, 17]: positive
Mutagenic response in WP2 uvrA (pKM101) ([9]; listed as NMPA): mutagenic
Effectiveness of time of preincubation for most effective S9 [9]: 60min = 30min
Mutagenicity/genotoxicity in mammalian cells in vitro [6]: Mutagenic/genotoxic in yeast, TK6, HepaRG cells
Mutagenicity/genotoxicity in yeast (yeast): Mutagenic/genotoxic in yeast, TK6, HepaRG cells
Mutagenic response in TA1537 ([14]; any activation condition and preincubation time, listed as N-nitroso-methylphenylamine): positive
Effectiveness of time of preincubation for most effective S9 ([14]; strain TA1537): 60min = 30min
Effectiveness of hamster vs. rat S9s for each positive strain ([14]; strain TA1537, H = hamster liver S9, R = rat liver S9): H only

CN(C)N=O [SM-1, N,N-Dimethylnitrous amide]
Effect of length of preincubation on positive responses ([12]; listed as NDMA): benefited from a preincubation of 60 min compared with 30 min
Effectiveness of time of preincubation for most effective S9 ([7]; strain TA1535): 60min >30min
Effectiveness of time of preincubation for most effective S9 [8]: 60min >30min
Effectiveness of time of preincubation for most effective S9 [9]: 60min = 30min
IARC classification [2]: Group 2A
Mutagenicity in host-mediated assay [3]: Mutagenic
Recombination in Drosophila (Drosophila): recombinogen in Drosophila
Ames response (all S9-mediated except where noted) (Ames tester strains): Positive; preincubation more sensitive
AI limit [4]: 96 ng/day
Mutagenicity in TGR assay [5]: Mutagenic in mouse and rat TGR
Mutagenicity/genotoxicity in mammalian cells in vitro [6, 16]: mutagenic/genotoxic in CHO, V79, L5178Y/Tk^+/−, HepaRG cells
